# According to US7049321B2, “Methods and pharmaceutical compositions for treatment of central and peripheral nervous system disorders and compounds useful therefor” (Israel Institute for Biological Research, priority 2002, dated 2006):
# “Also recorded” adds a separate entry of the source.
# How the values were obtained:
# M5 mAChR = molecular target: T1, M5 mAChR (Homo sapiens, UniProt P08912); experiment: Arachidonic acid (AA) release, M5; type: cell-based
# T1 construct: expressed in transfected cells
# M3 mAChR = molecular target: T2, M3 mAChR (Homo sapiens, UniProt P20309); experiment: Arachidonic acid (AA) release, M3; type: cell-based
# T2 construct: expressed in transfected cells
# [1] = test system: adrenergic, benzodiazepine, dopamine, GABA, glutamate, glycine, histamine, nicotinic, serotonin sites, ChAT, GAD, MAO-A, MAO-B; experiment: Binding panel of other receptors and enzymes (AF267B)
# cyclin D1 = experiment: Cyclin D1 expression in rat hippocampal neurons; type: cell-based; details: against Aβ (5 μM)-induced decrease
# Method: (§1) This study was performed in rat hippocampal primary cell cultures using the methods described by Garrido J L et al. (FASEB J 2002; 16:1982).
# Serotonin, 5HT3 = Serotonin, 5HT3 (Homo sapiens, UniProt P46098); experiment: Serotonin 5HT3 binding; details: at 10^−4 M
# GSK-3β = GSK-3β activity in rat hippocampal neurons; type: cell-based
# Method: as §1
# [2] = Ex vivo brain penetration in mice (GC and binding); details: for half-life: mice brain
# Method: This calculation was based on the brain weight (2 gr) vs. total plasma volume (14 ml).
# ischemic rats = experiment: Working memory (MWM) in ischemic rats; type: in vivo, Sprague Dawley rats; details: 0.5 mg/kg, po, chronic
# Method: Transient ischemia in rats was induced by a modification of the ischemia model (Voll et et al, Stroke, 20: 1700–1706, 1989). This was done by a bilateral carotid artery occlusion in Sprague Dawley rats: (42 male, 3 months old, weighing 270–340 g) combined with reduction in blood pressure induced by sodium nitropruside. Ischemia was induced in 21 rats whereas the other 21 rats served as sham controls. Under pentobarbital anasthesia (30 mg/kg, ip), sodium nitropruside 4.8 mg/kg/hr) was infused through a cannula implanted in the tail vein, for a period of 25 min. Five min after the initiation of the infusion, at the time when mean blood pressure was maintained at 30–60 mmHg (intial levels ˜110 mm Hg) both carotid arteries were clamped for 20 min. Immediately afterwards 1.8 mEq sodium bicarbonate solution was administerd ip in order to minimize systemic acidosis. The sham operated rats were anesthetized as the ischemic rats and were infused with saline. […] In rats subjected to ischemia, a mortality of about 30% was recorded within 24 hr after surgery. […]
# The ratio of escape latency (REL) and the ratio of path length (RPL) were calculated by the ratio of block no 2/block no 1 for each parameter. […] REL and RPL were analyzed by a 3-way ANOVA (2×2×3), with one repeated variable (weeks) and two non-repeated variables (Operation-ischemia/sham-operated and Treatment AF150(S)/DDW).
# T2 sequence (P20309 whole entry): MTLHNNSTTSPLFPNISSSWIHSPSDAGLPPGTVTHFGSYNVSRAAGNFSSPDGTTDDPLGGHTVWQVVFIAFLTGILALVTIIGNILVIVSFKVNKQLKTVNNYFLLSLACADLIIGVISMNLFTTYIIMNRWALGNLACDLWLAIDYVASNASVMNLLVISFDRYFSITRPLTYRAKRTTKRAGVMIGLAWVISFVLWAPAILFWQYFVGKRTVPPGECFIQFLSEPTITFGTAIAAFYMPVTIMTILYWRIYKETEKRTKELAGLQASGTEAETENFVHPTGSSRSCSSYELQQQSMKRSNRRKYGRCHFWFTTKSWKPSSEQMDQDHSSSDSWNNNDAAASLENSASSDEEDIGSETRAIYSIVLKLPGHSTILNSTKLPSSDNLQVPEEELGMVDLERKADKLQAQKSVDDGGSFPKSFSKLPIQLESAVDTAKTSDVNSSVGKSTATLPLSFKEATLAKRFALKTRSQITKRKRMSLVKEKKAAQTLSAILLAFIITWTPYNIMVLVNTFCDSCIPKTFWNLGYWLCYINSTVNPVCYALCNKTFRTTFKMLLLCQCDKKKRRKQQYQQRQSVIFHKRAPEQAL
# T1 sequence (P08912 whole entry): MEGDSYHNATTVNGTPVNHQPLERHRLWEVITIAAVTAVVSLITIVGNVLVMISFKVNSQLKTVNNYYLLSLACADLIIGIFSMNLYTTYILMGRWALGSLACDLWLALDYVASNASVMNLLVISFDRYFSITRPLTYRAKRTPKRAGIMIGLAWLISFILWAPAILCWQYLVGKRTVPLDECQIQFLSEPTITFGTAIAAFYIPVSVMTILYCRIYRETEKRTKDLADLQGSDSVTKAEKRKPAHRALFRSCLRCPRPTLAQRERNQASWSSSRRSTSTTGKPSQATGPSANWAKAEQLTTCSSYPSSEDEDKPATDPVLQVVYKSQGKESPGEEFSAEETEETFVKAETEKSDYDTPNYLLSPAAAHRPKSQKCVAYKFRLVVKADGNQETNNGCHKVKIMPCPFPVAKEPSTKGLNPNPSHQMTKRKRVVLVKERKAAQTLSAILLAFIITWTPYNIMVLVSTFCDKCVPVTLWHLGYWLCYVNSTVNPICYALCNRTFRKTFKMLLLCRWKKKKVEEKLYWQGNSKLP
# Sequence of Serotonin, 5HT3 (P46098 24-478): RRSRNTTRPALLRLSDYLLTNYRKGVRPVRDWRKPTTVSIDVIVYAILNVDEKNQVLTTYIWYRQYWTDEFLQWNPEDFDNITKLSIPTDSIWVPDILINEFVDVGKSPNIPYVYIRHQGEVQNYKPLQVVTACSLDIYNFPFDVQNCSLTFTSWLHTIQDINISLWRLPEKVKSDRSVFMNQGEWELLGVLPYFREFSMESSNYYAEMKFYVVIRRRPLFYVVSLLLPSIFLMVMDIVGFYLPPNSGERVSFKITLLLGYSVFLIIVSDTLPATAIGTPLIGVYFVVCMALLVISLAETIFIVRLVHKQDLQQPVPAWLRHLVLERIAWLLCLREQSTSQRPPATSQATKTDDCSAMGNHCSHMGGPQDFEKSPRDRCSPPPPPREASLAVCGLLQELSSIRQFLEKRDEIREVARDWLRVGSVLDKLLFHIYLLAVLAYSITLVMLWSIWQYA
structure (smiles),measurement,setting,value
"CC[C@@H]1SC2(CCNCC2)NC1=O [AF292, (S)-2-Ethyl-1-thia-4,8-diaza-spiro[4.5]decan-3-one]","AA release, M5 mAChR, agonist activity",M5 mAChR,"inactive as an agonist; also recorded: PI, AA: M5 mAChR - no effect as agonist"
same,"AA release, M3 mAChR, agonist activity",M3 mAChR,"inactive as an agonist; also recorded: PI., AA: M3 mAChR: Not active as agonist"
"CC[C@@H]1SC2(CCN(C)CC2)NC1=O [AF267B, (S)-2-ethyl-8-methyl-1-thia-4,8-diaza-spiro[4.5]decan-3-one]",Binding to panel,[1],no binding at all
same,"cyclin D1, increase vs. control",cyclin D1,50%
same,inhibition at 100 µM,"Serotonin, 5HT3",51.3%
same,GSK-3β activity vs. control in presence of Aβ fibrils,"GSK-3β; 10 μM, Aβ fibrils (10 μM) alone 370%",150%
same,Decrease of GSK-3β activity,GSK-3β; 100 μm,60%
"CC1=NCC2(CCN(C)CC2)S1 [AF150(S), 2,8-Dimethyl-1-thia-3,8-diaza-spiro[4.5]dec-2-ene]",brain penetration time,[2]; iv,1 min
same,MRT,"[2]; mouse, in vivo, 100 μmole/kg",50 min
same,half-life,"[2]; mouse, in vivo, iv, T1/2, first phase",21 min
same,half-life,"[2]; mouse, in vivo, iv, T1/2, second phase",53 min
same,Working memory performance (REL and RPL),ischemic rats,significantly improved working memory performance
